Measurements as given in patent US10821115B2, “Compounds that inhibit Mcl-1 protein” (priority 2017, dated 2020).
Read-outs that look alike come from different tables or passages of the source.

Columns and labels:
[1] = tested on: human multiple myeloma cell line, OPM-2; assay: Cell viability assay (OPM-2 10 FBS), CellTiter-Glo; format: cell-based
Method in brief: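 3000 cells/well, RPMI 1640 + 10% FBS; serial compound dilutions, 16 h, 37 °C/5% CO2.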

[2] = target: recombinant human Mcl-1 (residues 171-327) / Bim interaction (Homo sapiens (Human), UniProt Q07820); assay: biochemical; format: binding; conditions: read-out: Mcl-1 HTRF IC50
[3] = Homo sapiens, OPM-2, 16 h, read-out: OPM-2 10% FBS IC50 IP, OPM-2 cells, 10% FBS, 16 h, CellTiter-Glo
[4] = TR-FRET, Mcl-1(171-327) / biotin-Bim (51-76)
[5] = read-out: OPM-2 10% FBS IC50 IP, OPM-2 cells, 10% FBS, 16 h, CellTiter-Glo

Chain of recombinant human Mcl-1 (residues 171-327) / Bim interaction (Q07820 171-327): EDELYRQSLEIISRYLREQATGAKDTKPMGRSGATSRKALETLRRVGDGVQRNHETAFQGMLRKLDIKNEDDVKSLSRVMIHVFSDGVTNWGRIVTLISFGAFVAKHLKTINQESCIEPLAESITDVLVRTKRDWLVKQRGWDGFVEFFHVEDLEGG

CO[C@@]1(c2cncnc2)/C=C/C[C@H](C)[C@@H](C)S(=O)(=O)NC(=O)c2ccc3c(c2)N(C[C@@H]2CC[C@H]21)C[C@@]1(CCCc2cc(Cl)ccc21)CO3 [Example 100468, (1S,3′R,6′R,7′S,8′E,11′S,12′R)-6-chloro-7′-methoxy-11′,12′-dimethyl-7′-(5-pyrimidinyl)-3,4-dihydro-2H,15′H-spiro[naphthalene-1,22′-[20]oxa[13]thia[1,14]diazatetracyclo [14.7.2.0~3,6~.0~19,24~]pentacosa[8,16,18,24]tetraen]-15′-one 13′,13′-dioxide] was tested, and the IC50 [1, 3] was 943 nM and the IC50 [2, 4] was 0.393 nM.

With C[C@@H]1[C@@H](C)CCC[C@](O)(c2ccccn2)[C@@H]2CC[C@H]2CN2C[C@@]3(CCCc4cc(Cl)ccc43)COc3ccc(cc32)C(=O)NS1(=O)=O [Example 100469, (1S,3′R,6′R,7′R,11′S,12′R)-6-chloro-7′-hydroxy-11′,12′-dimethyl-7′-(2-pyridinyl)-3,4-dihydro-2H,15′H-spiro[naphthalene-1,22′-[20]oxa[13]thia[1,14]diazatetracyclo [14.7.2.0~3,6~.0~19,24~]pentacosa[16,18,24]trien]-15′-one 13′,13′-dioxide] the IC50 [1, 3] was 325 nM and the IC50 [2, 4] was 0.085 nM.

C=C(C)[C@@H](O)C[C@]1(OC)/C=C/C[C@H](C)[C@@H](C)S(=O)(=O)NC(=O)c2ccc3c(c2)N(C[C@@H]2CC[C@H]21)C[C@@]1(CCCc2cc(Cl)ccc21)CO3 [Example 100470, (1S,3′R,6′R,7′S,8′E,11′S,12′R)-6-chloro-7′-((2S)-2-hydroxy-3-methyl-3-buten-1-yl)-7′-methoxy-11′,12′-dimethyl-3,4-dihydro-2H,15′H-spiro[naphthalene-1,22′-[20]oxa[13]thia[1,14]diazatetracyclo [14.7.2.0~3,6~.0~19,24~]pentacosa[8,16,18,24]tetraen]-15′-one 13′,13′-dioxide] gave an IC50 [1, 5] of 9650 nM and an IC50 [2] of 0.576 nM.

Work on C=C(C)[C@@H](O)C[C@]1(OC)/C=C/C[C@H](C)[C@@H](C)S(=O)(=O)NC(=O)c2ccc3c(c2)N(C[C@@H]2CC[C@H]21)C[C@@]1(CCCc2cc(Cl)ccc21)CO3 [Example 100471, (1S,3′R,6′R,7′S,8′E,11′S,12′R)-6-chloro-7′-((2S)-2-hydroxy-3-methyl-3-buten-1-yl)-7′-methoxy-11′,12′-dimethyl-3,4-dihydro-2H,15′H-spiro[naphthalene-1,22′-[20]oxa[13]thia[1,14]diazatetracyclo [14.7.2.0~3,6~.0~19,24~]pentacosa[8,16,18,24]tetraen]-15′-one 13′,13′-dioxide] yielded an IC50 [1, 5] of 299 nM and an IC50 [2] of 0.281 nM.

For CO[C@]1(CCN(C)C)CCC[C@H](C)[C@@H](C)S(=O)(=O)NC(=O)c2ccc3c(c2)N(C[C@@H]2CC[C@H]21)C[C@@]1(CCCc2cc(Cl)ccc21)CO3 [Example 100472, (1S,3′R,6′R,7′S,11′S,12′R)-6-chloro-7′-(2-(dimethylamino)ethyl)-7′-methoxy-11′,12′-dimethyl-3,4-dihydro-2H,15′H-spiro[naphthalene-1,22′-[20]oxa[13]thia[1,14]diazatetracyclo [14.7.2.0~3,6~.0~19,24~]pentacosa[16,18,24]trien]-15′-one 13′,13′-dioxide], the IC50 [1, 3] was 357 nM and the IC50 [2, 4] was 0.651 nM.

Compound CO[C@H](C)[C@]1(OC)/C=C/C[C@H](C)[C@@H](C)S(=O)(=O)NC(=O)c2ccc3c(c2)N(C[C@@H]2CC[C@H]21)C[C@@]1(CCCc2cc(Cl)ccc21)CO3 [Example 100473, (1S,3′R,6′R,7′S,8′E,11′S,12′R)-6-chloro-7′-methoxy-7′-((1R)-1-methoxyethyl)-11′,12′-dimethyl-3,4-dihydro-2H,15′H-spiro[naphthalene-1,22′-[20]oxa[13]thia[1,14]diazatetracyclo [14.7.2.0~3,6~.0~19,24~]pentacosa[8,16,18,24]tetraen]-15′-one 13′,13′-dioxide] has an IC50 [1, 5] of 178 nM and an IC50 [2, 4] of 0.974 nM.

Compound CO[C@H](C)[C@]1(OC)/C=C/C[C@H](C)[C@@H](C)S(=O)(=O)NC(=O)c2ccc3c(c2)N(C[C@@H]2CC[C@H]21)C[C@@]1(CCCc2cc(Cl)ccc21)CO3 [Example 100475, (1S,3′R,6′R,7′S,8′E,11′S,12′R)-6-chloro-7′-methoxy-7′-((1R)-1-methoxyethyl)-11′,12′-dimethyl-3,4-dihydro-2H,15′H-spiro[naphthalene-1,22′-[20]oxa[13]thia[1,14]diazatetracyclo [14.7.2.0~3,6~.0~19,24~]pentacosa[8,16,18,24]tetraen]-15′-one 13′,13′-dioxide] has an IC50 [1, 5] of 2710 nM and an IC50 [2, 4] of 1.36 nM.

In the case of C[C@@H]1[C@@H](C)C/C=C/[C@](C)(OCC2CCOCC2)[C@@H]2CC[C@H]2CN2C[C@@]3(CCCc4cc(Cl)ccc43)COc3ccc(cc32)C(=O)NS1(=O)=O [Example 100477, (1S,3′R,6′R,7′S,8′E,11′S,12′R)-6-chloro-7′,11′,12′-trimethyl-7′-(tetrahydro-2H-pyran-4-ylmethoxy)-3,4-dihydro-2H,15′H-spiro[naphthalene-1,22′-[20]oxa[13]thia[1,14]diazatetracyclo [14.7.2.0~3,6~.0~19,24~]pentacosa[8,16,18,24]tetraen]-15′-one 13′,13′-dioxide], the IC50 [1, 3] is reported as 159 nM and the IC50 [2, 4] is reported as 0.313 nM.

Work on CO[C@@]1([C@@H](C)O)CCC[C@H](C)[C@@H](C)S(=O)(=O)NC(=O)c2ccc3c(c2)N(C[C@@H]2CC[C@H]21)C[C@@]1(CCCc2cc(Cl)ccc21)CO3 [Example 100483, (1S,3′R,6′R,7′S,11′S,12′R)-6-chloro-7′-((1R)-1-hydroxyethyl)-7′-methoxy-11′,12′-dimethyl-3,4-dihydro-2H,15′H-spiro[naphthalene-1,22′-[20]oxa[13]thia[1,14]diazatetracyclo [14.7.2.0~3,6~.0~19,24~]pentacosa[16,18,24]trien]-15′-one 13′,13′-dioxide] yielded an IC50 [1, 3] of 1690 nM and an IC50 [2, 4] of 1.66 nM.

In the case of C[C@@H]1[C@@H](C)C/C=C/[C@](C)(OCCN2CC(F)(F)C2)[C@@H]2CC[C@H]2CN2C[C@@]3(CCCc4cc(Cl)ccc43)COc3ccc(cc32)C(=O)NS1(=O)=O [Example 100484, (1S,3′R,6′R,7′S,8′E,11′S,12′R)-6-chloro-7′-(2-(3,3-difluoro-1-azetidinyl)ethoxy)-7′,11′,12′-trimethyl-3,4-dihydro-2H,15′H-spiro[naphthalene-1,22′-[20]oxa[13]thia[1,14]diazatetracyclo [14.7.2.0~3,6~.0~19,24~]pentacosa[8,16,18,24]tetraen]-15′-one 13′,13′-dioxide], the IC50 [1, 3] is reported as 3370 nM and the IC50 [2, 4] is reported as 3.85 nM.

With COCCN1CCN(CCO[C@@]2(C)/C=C/C[C@H](C)[C@@H](C)S(=O)(=O)NC(=O)c3ccc4c(c3)N(C[C@@H]3CC[C@H]32)C[C@@]2(CCCc3cc(Cl)ccc32)CO4)CC1 [Example 100485, (1S,3′R,6′R,7′S,8′E,11′S,12′R)-6-chloro-7′-(2-(4-(2-methoxyethyl)-1-piperazinyl)ethoxy)-7′,11′,12′-trimethyl-3,4-dihydro-2H,15′H-spiro[naphthalene-1,22′-[20]oxa[13]thia[1,14]diazatetracyclo [14.7.2.0~3,6~.0~19,24~]pentacosa[8,16,18,24]tetraen]-15′-one 13′,13′-dioxide] the IC50 [1, 3] was 272 nM and the IC50 [2, 4] was 0.192 nM.

CO[C@@]1(C#CCCN2CCN(S(C)(=O)=O)CC2)/C=C/C[C@H](C)[C@@H](C)S(=O)(=O)NC(=O)c2ccc3c(c2)N(C[C@@H]2CC[C@H]21)C[C@@]1(CCCc2cc(Cl)ccc21)CO3 [Example 100488, (1S,3′R,6′R,7′S,8′E,11′S,12′R)-6-chloro-7′-methoxy-11′,12′-dimethyl-7′-(4-(4-(methylsulfonyl)-1-piperazinyl)-1-butyn-1-yl)-3,4-dihydro-2H,15′H-spiro[naphthalene-1,22′-[20]oxa[13]thia[1,14]diazatetracyclo [14.7.2.0~3,6~.0~19,24~]pentacosa[8,16,18,24]tetraen]-15′-one 13′,13′-dioxide] was tested, and the IC50 [1, 3] was 346 nM and the IC50 [2, 4] was 0.389 nM.

CO[C@@]1(CC(=O)c2ccccn2)/C=C/C[C@H](C)[C@@H](C)S(=O)(=O)NC(=O)c2ccc3c(c2)N(C[C@@H]2CC[C@H]21)C[C@@]1(CCCc2cc(Cl)ccc21)CO3 [Example 100491, (1S,3′R,6′R,7′S,8′E,11′S,12′R)-6-chloro-7′-methoxy-11′,12′-dimethyl-7′-(2-oxo-2-(2-pyridinyl)ethyl)-3,4-dihydro-2H,15′H-spiro[naphthalene-1,22′-[20]oxa[13]thia[1,14]diazatetracyclo [14.7.2.0~3,6~.0~19,24~]pentacosa[8,16,18,24]tetraen]-15′-one 13′,13′-dioxide] gave an IC50 [1, 3] of 308 nM and an IC50 [2, 4] of 0.208 nM.

In the case of CO[C@]1(CS(C)(=O)=O)/C=C/C[C@H](C)[C@@H](C)S(=O)(=O)NC(=O)c2ccc3c(c2)N(C[C@@H]2CC[C@H]21)C[C@@]1(CCCc2cc(Cl)ccc21)CO3 [Example 100492, (1S,3′R,6′R,7′R,8′E,11′S,12′R)-6-chloro-7′-methoxy-11′,12′-dimethyl-7′-((methylsulfonyl)methyl)-3,4-dihydro-2H,15′H-spiro[naphthalene-1,22′-[20]oxa[13]thia[1,14]diazatetracyclo [14.7.2.0~3,6~.0~19,24~]pentacosa[8,16,18,24]tetraen]-15′-one 13′,13′-dioxide], the IC50 [1, 3] is reported as 436 nM and the IC50 [2, 4] is reported as 0.749 nM.

Compound CC#C[C@@]1(O)/C=C/C[C@H](C)[C@@H](C)S(=O)(=O)NC(=O)c2ccc3c(c2)N(C[C@@H]2CC[C@H]21)C[C@@]1(CCCc2cc(Cl)ccc21)CO3 [Example 100498, (1S,3′R,6′R,7′R,8′E,11′S,12′R)-6-chloro-7′-hydroxy-11′,12′-dimethyl-7′-(1-propyn-1-yl)-3,4-dihydro-2H,15′H-spiro[naphthalene-1,22′-[20]oxa[13]thia[1,14]diazatetracyclo [14.7.2.0~3,6~.0~19,24~]pentacosa[8,16,18,24]tetraen]-15′-one 13′,13′-dioxide] has an IC50 [1, 3] of 1660 nM and an IC50 [2] of 0.885 nM.
